From PubChem BioAssay AID977609 (Broad Institute, 2014) come the findings set out here.

SMILES strings stand for the structures. Activity calls are given as the source filed them.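 How the source made its calls: active means a rise in signal, meaning less cAMP, whose fitted curve reaches 40% at or below the top valid tested dose; inconclusive means flat fit between 30% and 70%, or a poor fit; inactive means the rest.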

The first assay relates to Drosophila melanogaster bursicon receptor LGR2 (rickets). Briefly: LGR2 antagonists blocking bursicon cAMP, dose response, orthogonal assay for LGR2 antagonist project, cell-based, HEK293 transfected, TR-FRET cAMP, dry powder (AID 977609). Conditions: bursicon-stimulated cAMP, Lance TR-FRET. On the technique in general: In TR-FRET formats the signal depends on donor and acceptor labels being close together.
On to `C[C@H](CO)N1C[C@H](C)[C@H](CN(C)C(=O)Nc2ccccc2)OCCCC[C@H](C)Oc2ccc(NC(=O)Nc3ccc4c(c3)OCO4)cc2C1=O`, for which the AC40 is 7540 nM.

Take `C[C@H](CO)N1C[C@H](C)[C@H](CN(C)C(=O)Nc2ccc(F)cc2)OCCCC[C@H](C)Oc2ccc(NC(=O)Nc3ccc(F)cc3)cc2C1=O`: the AC40 is 4690 nM.

For `C[C@@H]1CCCCO[C@@H](CN(C)C(=O)Nc2cccc3ccccc23)[C@H](C)CN([C@@H](C)CO)C(=O)c2cc(NC(=O)C3CCCCC3)ccc2O1`, the AC40 is > 50000 nM (inactive).

Consider `C[C@H]1CCCCO[C@@H](CN(C)C(=O)Nc2ccc(F)cc2)[C@@H](C)CN([C@@H](C)CO)C(=O)c2cc(NC(=O)C3CCCCC3)ccc2O1`, for which the AC40 is 1380 nM.

`C[C@H](CO)N1C[C@H](C)[C@H](CN(C)C(=O)Nc2ccccc2)OCCCC[C@H](C)Oc2ccc(NC(=O)CCC(F)(F)F)cc2C1=O`: the AC40 is 1530 nM.

`C[C@H](CO)N1C[C@H](C)[C@H](CN(C)C(=O)Nc2cccc3ccccc23)OCCCC[C@H](C)Oc2ccc(NC(=O)NC3CCCCC3)cc2C1=O`: the AC40 was 1650 nM.

On to `C[C@@H]1CN([C@H](C)CO)C(=O)c2cc(NC(=O)C3CCCCC3)ccc2O[C@@H](C)CCCCO[C@H]1CN(C)C(=O)Nc1cccc2ccccc12`, for which the AC40 was > 50000 nM (inactive).

As for `C[C@H](CO)N1C[C@H](C)[C@H](CN(C)C(=O)Nc2cccc(F)c2)OCCCC[C@H](C)Oc2ccc(NC(=O)C3CCCCC3)cc2C1=O`, the AC40 was 858 nM.

Consider `C[C@H](CO)N1C[C@H](C)[C@H](CN(C)C(=O)Nc2ccc(F)cc2)OCCCC[C@H](C)Oc2ccc(NC(=O)C3CCCC3)cc2C1=O`, for which the AC40 was 1750 nM.

As for `C[C@H](CO)N1C[C@H](C)[C@H](CN(C)C(=O)Nc2ccc(F)cc2)OCCCC[C@H](C)Oc2ccc(NC(=O)C3CCCCCC3)cc2C1=O`, the AC40 is 248 nM.

For the molecule `COc1ccc(NC(=O)N(C)C[C@@H]2OCCCC[C@H](C)Oc3ccc(NC(=O)C4CCCCC4)cc3C(=O)N([C@H](C)CO)C[C@@H]2C)cc1`, the AC40 was 1480 nM.

For the molecule `C[C@H](CO)N1C[C@H](C)[C@H](CN(C)C(=O)Nc2cccc3ccccc23)OCCCC[C@H](C)Oc2ccc(NC(=O)c3ccccc3)cc2C1=O`, the AC40 is 2490 nM.

With `C[C@H]1CCCCO[C@@H](CN(C)C(=O)Nc2cccc3ccccc23)[C@@H](C)CN([C@@H](C)CO)C(=O)c2cc(NC(=O)C3CCCCC3)ccc2O1`, the AC40 is 353 nM.

With `C[C@H](CO)N1C[C@H](C)[C@H](CN(C)C(=O)Nc2ccc(F)cc2)OCCCC[C@H](C)Oc2ccc(NC(=O)Nc3ccccc3)cc2C1=O`, the AC40 is 2890 nM.

Turning to `C[C@@H]1CN([C@@H](C)CO)C(=O)c2cc(NC(=O)C3CCCCC3)ccc2O[C@@H](C)CCCCO[C@H]1CN(C)C(=O)Nc1cccc2ccccc12`, the AC40 was > 50000 nM (inactive).

For the molecule `C[C@H](CO)N1C[C@H](C)[C@H](CN(C)C(=O)Nc2ccc(C(F)(F)F)cc2)OCCCC[C@H](C)Oc2ccc(NC(=O)CCC(F)(F)F)cc2C1=O`, the AC40 was 949 nM.

As to `C[C@H](CO)N1C[C@H](C)[C@H](CN(C)C(=O)Nc2ccc3c(c2)OCO3)OCCCC[C@H](C)Oc2ccc(NC(=O)C3CCCCC3)cc2C1=O`, the AC40 was 837 nM.

In the case of `C[C@H](CO)N1C[C@H](C)[C@H](CN(C)C(=O)Nc2ccc(C(F)(F)F)cc2)OCCCC[C@H](C)Oc2ccc(NC(=O)NC3CCCCC3)cc2C1=O`, the AC40 is 2710 nM.

For the molecule `C[C@H](CO)N1C[C@H](C)[C@H](CN(C)C(=O)Nc2ccccc2)OCCCC[C@H](C)Oc2ccc(NC(=O)Nc3ccccc3)cc2C1=O`, the AC40 was 5860 nM.

Take `C[C@H](CO)N1C[C@H](C)[C@H](CN(C)C(=O)Nc2ccccc2F)OCCCC[C@H](C)Oc2ccc(NC(=O)C3CCCCC3)cc2C1=O`: the AC40 was 515 nM.

For `C[C@H](CO)N1C[C@H](C)[C@H](CN(C)C(=O)Nc2ccc(F)cc2)OCCCC[C@H](C)Oc2ccc(NC(=O)C3CCOCC3)cc2C1=O`, the AC40 was 25000 nM.

For `C[C@H](CO)N1C[C@H](C)[C@H](CN(C)C(=O)Nc2ccc(F)cc2)OCCCC[C@H](C)Oc2ccc(NC(=O)C3CCCCC3)cc2C1=O`, the AC40 is 501 nM.

For `C[C@H]1CCCCO[C@H](CN(C)C(=O)Nc2cccc3ccccc23)[C@@H](C)CN([C@@H](C)CO)C(=O)c2cc(NC(=O)C3CCCCC3)ccc2O1`, the AC40 was > 50000 nM (inactive).

Take `C[C@H]1CCCCO[C@@H](CN(C)C(=O)Nc2ccc3c(c2)OCO3)[C@@H](C)CN([C@@H](C)CO)C(=O)c2cc(NC(=O)NC3CCCCC3)ccc2O1`: the AC40 was 3790 nM.

For the molecule `C[C@H](CO)N1C[C@H](C)[C@H](CN(C)C(=O)Nc2ccc(F)cc2)OCCCC[C@H](C)Oc2ccc(NC(=O)NC3CCCCC3)cc2C1=O`, the AC40 was 3910 nM.

Consider `COc1ccc(NC(=O)N(C)C[C@@H]2OCCCC[C@H](C)Oc3ccc(NC(=O)NC4CCCCC4)cc3C(=O)N([C@H](C)CO)C[C@@H]2C)cc1`, for which the AC40 was 2040 nM.

For the molecule `C[C@H]1CCCCO[C@@H](CN(C)S(=O)(=O)c2ccc(Cl)cc2)[C@@H](C)CN([C@@H](C)CO)C(=O)c2cc(NC(=O)NC3CCCCC3)ccc2O1`, the AC40 is > 50000 nM (inactive).

For `C[C@@H]1CCCCO[C@H](CN(C)C(=O)Nc2cccc3ccccc23)[C@@H](C)CN([C@H](C)CO)C(=O)c2cc(NC(=O)C3CCCCC3)ccc2O1`, the AC40 is > 50000 nM (inactive).

`C[C@H](CO)N1C[C@H](C)[C@H](CN(C)C(=O)Nc2ccccc2)OCCCC[C@H](C)Oc2ccc(NC(=O)C3CCCCC3)cc2C1=O`: the AC40 was 736 nM.

As for `CC(=O)Nc1ccc2c(c1)C(=O)N([C@H](C)CO)C[C@H](C)[C@H](CN(C)C(=O)Nc1ccc(F)cc1)OCCCC[C@H](C)O2`, the AC40 is > 50000 nM (inactive).

Regarding `C[C@H](CO)N1C[C@H](C)[C@H](CN(C)C(=O)Nc2cccc3ccccc23)OCCCC[C@H](C)Oc2ccc(NC(=O)CCC(F)(F)F)cc2C1=O`, the AC40 was 1950 nM.

Take `C[C@H](CO)N1C[C@H](C)[C@H](CN(C)C(=O)Nc2ccc(Cl)cc2)OCCCC[C@H](C)Oc2ccc(NC(=O)C3CCCCC3)cc2C1=O`: the AC40 is 853 nM.

For `C[C@H](CO)N1C[C@H](C)[C@H](CN(C)C(=O)Nc2ccc3c(c2)OCO3)OCCCC[C@H](C)Oc2ccc(NC(=O)NC3CCCCC3)cc2C1=O`, the AC40 is 5490 nM.

Regarding `Cc1ccc(NC(=O)N(C)C[C@@H]2OCCCC[C@H](C)Oc3ccc(NC(=O)C4CCCCC4)cc3C(=O)N([C@H](C)CO)C[C@@H]2C)cc1`, the AC40 is 1050 nM.

Turning to `C[C@H](CO)N1C[C@H](C)[C@@H](CN(C)C(=O)Nc2cccc3ccccc23)OCCCC[C@H](C)Oc2ccc(NC(=O)C3CCCCC3)cc2C1=O`, the AC40 was > 50000 nM (inactive).

Take `C[C@H]1CCCCO[C@@H](CN(C)C(=O)Nc2ccccc2)[C@@H](C)CN([C@@H](C)CO)C(=O)c2cc(NC(=O)NC3CCCCC3)ccc2O1`: the AC40 is 3580 nM.

As for `C[C@H](CO)N1C[C@H](C)[C@H](CN(C)C(=O)Nc2ccc(F)cc2)OCCCC[C@H](C)Oc2ccc(NC(=O)C3CCC3)cc2C1=O`, the AC40 is 4980 nM.

With `C[C@H](CO)N1C[C@H](C)[C@H](CN(C)C(=O)Nc2ccc(F)cc2)OCCCC[C@H](C)Oc2ccc(NC(=O)C3CC3)cc2C1=O`, the AC40 was 49600 nM.

With `C[C@@H]1CCCCO[C@H](CN(C)C(=O)Nc2cccc3ccccc23)[C@@H](C)CN([C@@H](C)CO)C(=O)c2cc(NC(=O)C3CCCCC3)ccc2O1`, the AC40 is > 50000 nM (inactive).

On to `C[C@@H]1CCCCO[C@H](CN(C)C(=O)Nc2cccc3ccccc23)[C@H](C)CN([C@H](C)CO)C(=O)c2cc(NC(=O)C3CCCCC3)ccc2O1`, for which the AC40 is > 50000 nM (inactive).

Take `C[C@H](CO)N1C[C@H](C)[C@H](CN(C)C(=O)Nc2ccc3ccccc3c2)OCCCC[C@H](C)Oc2ccc(NC(=O)C3CCCCC3)cc2C1=O`: the AC40 was 219 nM.

As to `C[C@@H]1CCCCO[C@@H](CN(C)C(=O)Nc2cccc3ccccc23)[C@@H](C)CN([C@@H](C)CO)C(=O)c2cc(NC(=O)C3CCCCC3)ccc2O1`, the AC40 is > 50000 nM (inactive).

Consider `C[C@H](CO)N1C[C@H](C)[C@H](CN(C)C(=O)Nc2cccc3ccccc23)OCCCC[C@H](C)Oc2ccc(NC(=O)C3CCCCC3)cc2C1=O`, for which the AC40 was 129 nM.

As for `COc1ccc(S(=O)(=O)N(C)C[C@@H]2OCCCC[C@H](C)Oc3ccc(NS(=O)(=O)c4ccc(F)cc4)cc3C(=O)N([C@@H](C)CO)C[C@@H]2C)cc1`, the AC40 was > 50000 nM (inactive).

Take `C[C@H]1CCCCO[C@@H](CN(C)C(=O)Nc2ccc(C(F)(F)F)cc2)[C@@H](C)CN([C@@H](C)CO)C(=O)c2cc(NC(=O)CCC(F)(F)F)ccc2O1`: the AC40 was 2160 nM.

Consider `C[C@@H]1CN([C@H](C)CO)C(=O)c2cc(NC(=O)C3CCCCC3)ccc2O[C@@H](C)CCCCO[C@@H]1CN(C)C(=O)Nc1cccc2ccccc12`, for which the AC40 was > 50000 nM (inactive).

In the case of `C[C@H](CO)N1C[C@H](C)[C@H](CN(C)C(=O)Nc2ccccc2)OCCCC[C@H](C)Oc2ccc(NC(=O)NC3CCCCC3)cc2C1=O`, the AC40 was 3220 nM.

The assay is the same for the next values; noted with them: bursicon-stimulated cAMP, Lance TR-FRET, at 50 µM (top of the series).
As for `C[C@@H]1CN([C@@H](C)CO)C(=O)c2cc(NC(=O)C3CCCCC3)ccc2O[C@@H](C)CCCCO[C@@H]1CN(C)C(=O)Nc1cccc2ccccc12`, the inhibition of cAMP was 10.1% (inactive).

On to `CC(C)(C)c1ccc(-c2nc(-c3ccncc3)no2)cc1`, for which the inhibition of cAMP was 9.18% (inactive).

Consider `C[C@@H]1CCCCO[C@@H](CN(C)C(=O)Nc2cccc3ccccc23)[C@H](C)CN([C@H](C)CO)C(=O)c2cc(NC(=O)C3CCCCC3)ccc2O1`, for which the inhibition of cAMP was -5.85% (inactive).

Take `C[C@@H]1CCCCO[C@H](CN(C)C(=O)Nc2cccc3ccccc23)[C@H](C)CN([C@@H](C)CO)C(=O)c2cc(NC(=O)C3CCCCC3)ccc2O1`: the inhibition of cAMP was 16% (inactive).

Take `C[C@@H]1CCCCO[C@@H](CN(C)C(=O)Nc2cccc3ccccc23)[C@@H](C)CN([C@H](C)CO)C(=O)c2cc(NC(=O)C3CCCCC3)ccc2O1`: the inhibition of cAMP was -2.89% (inactive).

As for `COc1ccc(S(=O)(=O)N(C)C[C@@H]2OCCCC[C@H](C)Oc3ccc(NS(=O)(=O)c4ccc(Cl)cc4)cc3C(=O)N([C@@H](C)CO)C[C@@H]2C)cc1`, the inhibition of cAMP is 6.28% (inactive).
